Patent US20150238477A1, “Method of Treating Lung Adenocarcinoma” (EXELIXIS, INC., priority 2012, published 2015)

Experiments:
[1] = mouse, in vivo
Method: (§1) Nu/nu mice bearing TT tumors were orally administered once daily water vehicle (□) or cabozantinib at 3 mg/kg (∇), 10 mg/kg (◯), 30 mg/kg (♦), or 60 mg/kg (⋄) for 21 days. Tumor weights were determined twice weekly. Data points represent the mean tumor weight (in milligrams) and SE for each treatment group. Circulating calcitonin levels were determined in serum preparations from whole blood collected after the final indicated doses (* indicates a significant, P <0.05, reduction in circulating calcitonin when compared to serum samples from vehicle-treated control animals).
. Given that TT xenograft tumors are known to secrete high amounts of human calcitonin that correlates with tumor size, serum concentrations of circulating calcitonin were determined at the end of the dosing period. […]; P <0.005) at both the 30- and 60-mg/kg doses when compared to vehicle control animals, as depicted in FIG. 2B. Moreover, this reduction in circulating plasma calcitonin correlated with TT tumor growth inhibition described above. […]

TT xenograft tumors = test: TT xenograft tumor growth; type: in vivo, nu/nu mice; conditions: oral once daily, 21 days
Method: as §1

[2] = plasma concentrations in TT xenograft study; type: in vivo, nu/nu mice; conditions: 30- and 60-mg/kg doses, oral once daily
medullary thyroid cancer = conditions: 25 of 37 patients with MTC; cited from earlier work
[3] = molecular target: T1, KIF5B-RET fusion-positive NSCLC (Homo sapiens, UniProt P07949); test: case study, phase 1 monotherapy in a patient with KIF5B-RET fusion-positive NSCLC; type: in vivo
T1 construct: expression of variant 1 transcripts (KIF5B exon 15; RET exon 12); endogenous in cells; host or cells: lung adenocarcinoma cells of the patient (pleural effusion cells); the other entry of the earlier key: KIF5B (P33176, Kinesin-1 heavy chain)
T1 sequence (P07949 with tags, fused parts or gaps): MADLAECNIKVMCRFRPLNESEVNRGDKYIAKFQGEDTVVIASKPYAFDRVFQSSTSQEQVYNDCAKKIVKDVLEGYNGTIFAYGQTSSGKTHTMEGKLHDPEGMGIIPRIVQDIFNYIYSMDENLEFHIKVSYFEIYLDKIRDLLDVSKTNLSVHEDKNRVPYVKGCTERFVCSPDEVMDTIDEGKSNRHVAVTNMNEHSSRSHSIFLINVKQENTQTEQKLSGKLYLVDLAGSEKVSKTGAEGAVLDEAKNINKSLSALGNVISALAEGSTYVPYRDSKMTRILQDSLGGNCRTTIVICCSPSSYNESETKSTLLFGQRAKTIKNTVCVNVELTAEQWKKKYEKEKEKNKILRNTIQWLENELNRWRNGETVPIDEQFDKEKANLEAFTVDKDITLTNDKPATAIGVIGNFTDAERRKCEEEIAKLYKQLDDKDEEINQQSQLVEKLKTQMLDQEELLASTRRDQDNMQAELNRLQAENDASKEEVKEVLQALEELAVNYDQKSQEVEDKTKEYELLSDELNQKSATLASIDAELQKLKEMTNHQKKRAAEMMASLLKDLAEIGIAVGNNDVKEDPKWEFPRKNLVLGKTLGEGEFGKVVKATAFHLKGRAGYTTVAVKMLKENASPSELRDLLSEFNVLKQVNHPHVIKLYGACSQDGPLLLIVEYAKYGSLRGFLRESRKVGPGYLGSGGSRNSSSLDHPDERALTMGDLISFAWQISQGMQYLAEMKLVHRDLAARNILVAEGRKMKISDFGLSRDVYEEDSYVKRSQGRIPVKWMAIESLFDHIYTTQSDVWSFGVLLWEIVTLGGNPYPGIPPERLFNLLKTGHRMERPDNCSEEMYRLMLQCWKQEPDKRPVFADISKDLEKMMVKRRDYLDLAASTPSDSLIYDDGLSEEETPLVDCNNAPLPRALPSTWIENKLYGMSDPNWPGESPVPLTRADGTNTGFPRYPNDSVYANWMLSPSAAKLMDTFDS
From the text: A person who was a former smoker presented in April 2009 for evaluation of a right pleural effusion. […] There was also no tumor in either the neck or thyroid on the CT scans. The patient was diagnosed as having stage IIIB (cT4N0M0, 6th edition of the International System for Staging Lung cancer) adenocarcinoma of the lung. […] Re-growth of primary tumor was, however, reported 8 months after the end of therapy. The patient subsequently received 13 cycles of docetaxel as second-line treatment and 2 cycles of an investigational drug (anti-HER2 [human epidermal growth factor receptor type2] antibody) as third-line treatment. […] Yamamoto, N., Nokihara, H., Wakui, H., Yamada, Y., Frye, J., DeCillis, A., and Tamura, T. A phase 1 multiple ascending dose study of cabozantinib (XL184) monotherapy in Japanese patients with advanced solid tumors. Molecular Cancer Therapeutics. 2011 10 suppl 1 (abstr C26) and Nokihara, H., Yamamoto, N., Nakamichi, S., Wakui, H., Yamada, Y., Frye, J., Decillis, A., and Tamura, T. in Annals of Oncology, Vol. 23, Supplement 9, published September 17, 2012.
In February 2012, they terminated cabozantinib monotherapy due to progressive disease.

AKT and ERK = test: phosphorylation of AKT and ERK in TT xenograft tumors in vivo; set-up: species or system mice; conditions: single 100-mg/kg oral dose
Method: Levels of phosphorylated and total RET and were determined in pooled lysates by Western immunoblot analysis. In a separate study, mice bearing TT tumors were administered a single oral dose of cabozantinib (100 mg/kg) or water vehicle, and levels of phosphorylated and total RET, AKT, and ERK in tumor lysates were determined at the indicated time points post dose. Densitometric quantitation of the duration of inhibition of phosphorylation of RET versus plasma concentrations of cabozantinib. Representative Western blot images are shown. […] This effect was reversible as RET phosphorylation returned to basal levels by 48 hours after treatment as depicted in FIG. 1C.

RET = molecular target: T2, RET (Homo sapiens, UniProt P07949, C634W); test: phosphorylation of RET in TT xenograft tumors in vivo (Western immunoblot); set-up: species or system mice
T2 construct: endogenous in cells; host or cells: TT cells (human medullary thyroid carcinoma), in culture or as xenograft tumours in nu/nu mice
T2 sequence (P07949 29-1114 C634W): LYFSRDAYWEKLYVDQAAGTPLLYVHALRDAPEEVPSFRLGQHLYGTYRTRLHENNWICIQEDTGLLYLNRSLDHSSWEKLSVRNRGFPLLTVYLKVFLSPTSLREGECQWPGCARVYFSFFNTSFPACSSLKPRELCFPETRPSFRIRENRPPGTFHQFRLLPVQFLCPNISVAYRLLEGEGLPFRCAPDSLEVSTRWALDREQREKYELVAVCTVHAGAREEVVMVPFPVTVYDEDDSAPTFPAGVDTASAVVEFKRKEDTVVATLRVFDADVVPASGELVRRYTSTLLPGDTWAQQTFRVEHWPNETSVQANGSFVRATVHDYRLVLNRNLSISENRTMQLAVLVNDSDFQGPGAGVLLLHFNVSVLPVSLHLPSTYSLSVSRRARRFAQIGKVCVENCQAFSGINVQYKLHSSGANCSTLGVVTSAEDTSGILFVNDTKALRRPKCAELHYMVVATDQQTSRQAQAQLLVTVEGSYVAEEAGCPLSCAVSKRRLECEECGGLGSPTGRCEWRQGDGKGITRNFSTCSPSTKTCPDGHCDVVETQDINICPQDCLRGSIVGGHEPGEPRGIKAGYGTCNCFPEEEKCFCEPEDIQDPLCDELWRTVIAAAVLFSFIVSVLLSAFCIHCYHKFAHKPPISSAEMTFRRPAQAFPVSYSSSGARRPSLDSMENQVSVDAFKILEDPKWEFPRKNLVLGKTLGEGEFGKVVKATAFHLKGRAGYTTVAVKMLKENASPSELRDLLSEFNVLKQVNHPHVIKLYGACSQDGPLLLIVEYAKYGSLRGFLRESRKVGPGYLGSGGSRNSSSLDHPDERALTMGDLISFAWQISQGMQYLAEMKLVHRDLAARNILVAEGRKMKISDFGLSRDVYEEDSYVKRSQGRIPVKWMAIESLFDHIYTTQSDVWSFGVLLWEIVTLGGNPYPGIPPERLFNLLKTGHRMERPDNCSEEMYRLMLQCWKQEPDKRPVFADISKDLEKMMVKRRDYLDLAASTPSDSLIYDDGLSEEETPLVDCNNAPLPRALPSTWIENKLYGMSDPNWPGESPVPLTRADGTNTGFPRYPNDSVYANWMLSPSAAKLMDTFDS

KIF5B-RET = molecular target: T3, KIF5B-RET (Homo sapiens, UniProt P07949); conditions: in vitro studies; cited from earlier work
T3 sequence (P07949 713-1063 limits assumed): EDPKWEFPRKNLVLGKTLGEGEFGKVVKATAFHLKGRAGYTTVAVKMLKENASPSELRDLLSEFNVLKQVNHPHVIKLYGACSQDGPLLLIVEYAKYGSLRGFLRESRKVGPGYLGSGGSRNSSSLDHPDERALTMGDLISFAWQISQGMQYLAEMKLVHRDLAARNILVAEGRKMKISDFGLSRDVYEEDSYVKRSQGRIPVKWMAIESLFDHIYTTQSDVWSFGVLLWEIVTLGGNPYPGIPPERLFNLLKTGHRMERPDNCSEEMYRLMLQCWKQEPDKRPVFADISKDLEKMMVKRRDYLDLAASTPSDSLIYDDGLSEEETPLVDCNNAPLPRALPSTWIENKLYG

Row | Structure (SMILES) | tolerability (stable body weights) [1] | TT xenograft tumor growth (TT xenograft tumors; 10- and 30-mg/kg doses) | TT xenograft tumor growth outcome (TT xenograft tumors; 30- and 60-mg/kg doses) | peak cyclical plasma concentrations [2] | patients with confirmed partial response or stable disease for 6 months or longer (medullary thyroid cancer) | adverse event leading to drug interruptions ([3]; during 10 cycles (months) of therapy, without clinical symptoms of pancreatitis) | response of primary lung tumor on chest CT ([3]; starting dose 40 mg once a day, at 9 weeks, confirmed at 17 weeks) | tumor reduction ([3]; starting dose 40 mg once a day, chest CT at 9 weeks) | time of reduced phosphorylation levels of AKT and ERK post dose (AKT and ERK) | time of inhibition of phosphorylation of RET post dose (RET; single 100-mg/kg oral dose) | time at which RET phosphorylation returned to basal levels (RET; single 100-mg/kg oral dose, after treatment) | inhibition of phosphorylation of RET in tumors (RET; single ascending oral dose, tumors collected 4 h post dose) | growth and signaling properties mediated by KIF5B-RET after treatment (KIF5B-RET)
1 | COc1cc2nccc(Oc3ccc(NC(=O)C4(C(=O)Nc5ccc(F)cc5)CC4)cc3)c2cc1OC [Compound 1, N-(4-{[6,7-bis(methyloxy)quinolin-4-yl]oxy}phenyl)-N′-(4-fluorophenyl)cyclopropane-1,1-dicarboxamide] | well tolerated | dose-dependent inhibition | stable disease | 3,000 to 45,000 nmol/L | 68% | grade 3 serum lipase elevations | partial response | 40.1% | 4 to 24 h | 4 to 24 h | ≤ 48 h | dose-dependent inhibition of phosphorylation of RET | 
2 | CNC(=O)c1cc(Oc2ccc(NC(=O)Nc3ccc(Cl)c(C(F)(F)F)c3)cc2)ccn1 [sorafenib] |  |  |  |  |  |  |  |  |  |  |  |  | diminished
